In US20130261077A1 (priority 2012, published 2013):

Biological target: T1, FimH-CRD (Escherichia coli, UniProt P08191)
T1 construct: The first 177 amino acids of the FimH protein; thrombin tag (printed as 'fusion protein with thrombin') (cleaved yes); made in house; host or cells: bacteria (pET21b plasmid)
Assay: Competitive binding assay by fluorescence polarization, assay 1 (compounds prepared by manual serial dilution)
Experimental: The first 177 amino acids of the FimH protein were expressed as a fusion protein with thrombin in a pET21b plasmid in bacteria. This FimH protein sequence contains the carbohydrate recognition domain (CRD) and shall be termed FimH-CRD. Following bacterial expression of the protein, the FimH-CRD protein was purified to homogeneity and the thrombin tag removed by protease cleavage. A competitive binding assay by fluorescence polarization was performed using 5 nM of the Alexa 647 mannoside probe and 60 nM of the FimH-CRD. The samples are assayed in a low volume 384 well microtiter plate in a final volume of 20 μl. The final assay buffer conditions are the following, 50 mM Tris-Cl, ph 7.0, 100 mM NaCl, 1 mM EDTA, 5 mM β-mercaptoethanol, 0.05% BSA and 2.5% DMSO. Two assays are performed for FimH, termed assay 1 or assay 2. The assay conditions are the same for both assays except the following: assay 1 has compounds prepared by manual dilution in a serial dilution factor with 12-point dose response while assay 2 has compounds prepared by a robotics system also through a serial dilution factor (12 point dose response) and initially prepared in duplicate in 384 well-Corning polypropylene round bottom plates. The assay 2 plates have compound which is then frozen and must be thawed prior to use. Initially the Alexa 647 probe and the FimH-CRD are added to the assay buffer and then 0.5 μl of test compound (assay 1 or 2) between 0.4 nM to 75 μM final concentration are added (12 point titration with 3-fold serial dilution). Control wells for the Alexa 647 probe are prepared with the same conditions except for the addition of the FimH-CRD protein. Plates are then incubated for 5 hrs at room temperature in the dark and under humid conditions to prevent drying. Plates are read using the SpectraMax Paradigm multi-mode plate reader and the appropriate fluorescent polarization detection cartridge (Alexa-647).
Alexa 647 mannoside probe is prepared using the similar procedure reported for FAM mannoside (Han, Z. et. al., 2010, J. Med. Chem., 53, 4779) and is described in the scheme below.
To a blue colored stirred solution of (2S,3S,4S,5S,6R)-2-(4-aminobutoxy)-6-(hydroxymethyl)tetrahydropyran-3,4,5-triol (2.21 mg, 0.009 mmol) and the (2E)-2-[(2E,4E)-5-[3,3-dimethyl-5-sulfonato-1-(3-sulfonatopropyl)indol-1-ium-2-yl]penta-2,4-dienylidene]-3-[6-(2,5-dioxopyrrolidin-1-yl)oxy-6-oxo-hexyl]-3-methyl-1-(3-sulfonatopropyl)indoline-5-sulfonate (Potassium Ion (3)) (4.9 mg, 0.0044 mmol) in DMF (44 μL) is added Et3N (5.4 mg, 7.0 μL, 0.053 mmol) at RT. The solution is stirred at room temperature over night, concentrated, dissolved in water and purified on 12 g C-18 silica gel cartridge on Isolera system using acetonitrile in water (0 to 40%, 10 CV) and followed by lyophilization to afford Alexa 647 mannoside probe (3.3 mg, 34%) as deep blue solid.
The Kd values of the compounds are determined from dose response curves using twelve concentrations per compound in duplicate. Curves are fitted to data points using Fluorescence Polarization competitive displacement analysis, and Kds are interpolated from the resulting curves using GraphPad Prism software, version […] (GraphPad software Inc., San Diego, Calif., USA).

T1 sequence (P08191 22-177): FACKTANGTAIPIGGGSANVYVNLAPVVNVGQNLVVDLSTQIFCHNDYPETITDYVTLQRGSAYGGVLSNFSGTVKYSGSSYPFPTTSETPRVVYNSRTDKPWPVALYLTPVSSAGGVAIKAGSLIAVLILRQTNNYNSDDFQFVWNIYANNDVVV

Row | SMILES | IC50 [µM] | Kd [µM]
1 | OC[C@H]1O[C@H](c2cccc(-c3ccc4cc(O)ccc4c3)c2)[C@@H](O)[C@@H](O)[C@@H]1O [Compound 17, (2R,3S,4R,5S,6R)-2-(hydroxymethyl)-6-[3-(6-hydroxy-2-naphthyl)phenyl]tetrahydropyran-3,4,5-triol] | 0.048 | 0.0086 ± 0.0025
2 | Cn1nc(C(F)(F)F)cc1-c1cccc([C@H]2O[C@H](CO)[C@@H](O)[C@H](O)[C@@H]2O)c1 [Compound 18, (2R,3S,4R,5S,6R)-2-(hydroxymethyl)-6-(3-(1-methyl-3-(trifluoromethyl)-1H-pyrazol-5-yl)phenyl)tetrahydro-2H-pyran-3,4,5-triol] | 0.16 | 0.0337 ± 0.0158
3 | CCCOc1ccc(F)c(-c2cccc([C@H]3O[C@H](CO)[C@@H](O)[C@H](O)[C@@H]3O)c2)c1 [Compound 19] | 0.052 | 0.0062 ± 0.0012
4 | OC[C@H]1O[C@H](c2cccc(-c3ccc4c(c3)OCCO4)c2)[C@@H](O)[C@@H](O)[C@@H]1O [Compound 20, (2R,3S,4R,5S,6R)-2-(3-(2,3-dihydrobenzo[b][1,4]dioxin-6-yl)phenyl)-6-(hydroxymethyl)tetrahydro-2H-pyran-3,4,5-triol] | 0.055 | 0.0071 ± 0.0024
5 | CS(=O)(=O)c1ccc(-c2cccc([C@H]3O[C@H](CO)[C@@H](O)[C@H](O)[C@@H]3O)c2)cc1 [Compound 21] | 0.092 | 0.0123 ± 0.0051
6 | O=C(Nc1ccccc1)c1cccc([C@H]2O[C@H](CO)[C@@H](O)[C@H](O)[C@@H]2O)c1 [Compound 23, N-phenyl-3-[(2R,3S,4R,5S,6R)-3,4,5-trihydroxy-6-(hydroxymethyl)tetrahydropyran-2-yl]benzamide] | 0.016 | 0.0384 ± 0.0236
7 | Cc1cc(NC(=O)c2cccc([C@H]3O[C@H](CO)[C@@H](O)[C@H](O)[C@@H]3O)c2)n(Cc2ccccc2)n1 [Compound 24, N-(1-benzyl-3-methyl-1H-pyrazol-5-yl)-3-((2R,3S,4R,5S,6R)-3,4,5-trihydroxy-6-(hydroxymethyl)tetrahydro-2H-pyran-2-yl)benzamide] | 0.243 | 0.0567 ± 0.0002
8 | Cc1nnc(NC(=O)c2cccc([C@H]3O[C@H](CO)[C@@H](O)[C@H](O)[C@@H]3O)c2)s1 [Compound 25, N-(5-methyl-1,3,4-thiadiazol-2-yl)-3-((2R,3S,4R,5S,6R)-3,4,5-trihydroxy-6-(hydroxymethyl)tetrahydro-2H-pyran-2-yl)benzamide] | 0.036 | 0.007 ± 0.0005
9 | O=C(Nc1ccc2ncccc2c1)c1cccc([C@H]2O[C@H](CO)[C@@H](O)[C@H](O)[C@@H]2O)c1 [Compound 26, N-(quinolin-6-yl)-3-((2R,3S,4R,5S,6R)-3,4,5-trihydroxy-6-(hydroxymethyl)tetrahydro-2H-pyran-2-yl)benzamide] | 0.1 | 0.0168 ± 0.0078
10 | O=C(Nc1ccc2[nH]ccc2c1)c1cccc([C@H]2O[C@H](CO)[C@@H](O)[C@H](O)[C@@H]2O)c1 [Compound 27, N-(1H-indol-5-yl)-3-((2R,3S,4R,5S,6R)-3,4,5-trihydroxy-6-(hydroxymethyl)tetrahydro-2H-pyran-2-yl)benzamide] | 0.138 | 0.037 ± 0.0031
11 | Cc1cnc(NC(=O)c2cccc([C@H]3O[C@H](CO)[C@@H](O)[C@H](O)[C@@H]3O)c2)s1 [Compound 28, N-(5-methylthiazol-2-yl)-3-((2R,3S,4R,5S,6R)-3,4,5-trihydroxy-6-(hydroxymethyl)tetrahydro-2H-pyran-2-yl)benzamide] | 0.056 | 0.0167 ± 0.0075
12 | O=C(Nc1cccnc1)c1cccc([C@H]2O[C@H](CO)[C@@H](O)[C@H](O)[C@@H]2O)c1 [Compound 29, N-(pyridin-3-yl)-3-((2R,3S,4R,5S,6R)-3,4,5-trihydroxy-6-(hydroxymethyl)tetrahydro-2H-pyran-2-yl)benzamide] | 0.059 | 0.0181 ± 0.0059
13 | O=C(Nc1nc2ccc(Cl)cc2s1)c1cccc([C@H]2O[C@H](CO)[C@@H](O)[C@H](O)[C@@H]2O)c1 [Compound 30, N-(6-chlorobenzo[d]thiazol-2-yl)-3-((2R,3S,4R,5S,6R)-3,4,5-trihydroxy-6-(hydroxymethyl)tetrahydro-2H-pyran-2-yl)benzamide] | 0.053 | 0.0098 ± 0.0018
14 | CCCc1ccc(NC(=O)c2cccc([C@H]3O[C@H](CO)[C@@H](O)[C@H](O)[C@@H]3O)c2)cc1 [Compound 31, N-(4-propylphenyl)-3-((2R,3S,4R,5S,6R)-3,4,5-trihydroxy-6-(hydroxymethyl)tetrahydro-2H-pyran-2-yl)benzamide] | 0.084 | 0.0228 ± 0.0009
15 | O=C(Nc1ccc2ccccc2c1)c1cccc([C@H]2O[C@H](CO)[C@@H](O)[C@H](O)[C@@H]2O)c1 [Compound 32, N-(naphthalen-2-yl)-3-((2R,3S,4R,5S,6R)-3,4,5-trihydroxy-6-(hydroxymethyl)tetrahydro-2H-pyran-2-yl)benzamide] | 0.045 | 0.0226 ± 0.0187
16 | O=C(NCc1ccccc1)c1cccc([C@H]2O[C@H](CO)[C@@H](O)[C@H](O)[C@@H]2O)c1 [Compound 33, N-benzyl-3-((2R,3S,4R,5S,6R)-3,4,5-trihydroxy-6-(hydroxymethyl)tetrahydro-2H-pyran-2-yl)benzamide] | 0.076 | 0.0289 ± 0.0145
17 | O=C(NCCc1ccccc1)c1cccc([C@H]2O[C@H](CO)[C@@H](O)[C@H](O)[C@@H]2O)c1 [Compound 34, N-phenethyl-3-((2R,3S,4R,5S,6R)-3,4,5-trihydroxy-6-(hydroxymethyl)tetrahydro-2H-pyran-2-yl)benzamide] | 0.124 | 0.038 ± 0.0071
18 | O=C(NC1CC1)c1cccc([C@H]2O[C@H](CO)[C@@H](O)[C@H](O)[C@@H]2O)c1 [Compound 36, N-cyclopropyl-3-((2R,3S,4R,5S,6R)-3,4,5-trihydroxy-6-(hydroxymethyl)tetrahydro-2H-pyran-2-yl)benzamide] | 0.168 | 0.0532 ± 0.0065
19 | O=C(NCC1CC1)c1cccc([C@H]2O[C@H](CO)[C@@H](O)[C@H](O)[C@@H]2O)c1 [Compound 37, N-(cyclopropylmethyl)-3-((2R,3S,4R,5S,6R)-3,4,5-trihydroxy-6-(hydroxymethyl)tetrahydro-2H-pyran-2-yl)benzamide] |  | 0.0401 ± 0.0151
20 | CNC(=O)c1cccc(-c2ccccc2[C@H]2O[C@H](CO)[C@@H](O)[C@H](O)[C@@H]2O)c1 [Compound 39, N-methyl-2′-((2R,3S,4R,5S,6R)-3,4,5-trihydroxy-6-(hydroxymethyl)tetrahydro-2H-pyran-2-yl)-[1,1′-biphenyl]-3-carboxamide] | 1.39 | 0.396 ± 0.0447
21 | COc1ccc(Br)cc1[C@H]1O[C@H](CO)[C@@H](O)[C@H](O)[C@@H]1O [Compound 41, (2R,3S,4R,5S,6R)-2-(5-bromo-2-methoxyphenyl)-6-(hydroxymethyl)tetrahydro-2H-pyran-3,4,5-triol] | 0.223 | 0.0478 ± 0.0068
22 | COC(=O)CCc1ccc(OC)c([C@H]2O[C@H](CO)[C@@H](O)[C@H](O)[C@@H]2O)c1 [Compound 42, Methyl 3-(4-methoxy-3-((2R,3S,4R,5S,6R)-3,4,5-trihydroxy-6-(hydroxymethyl)tetrahydro-2H-pyran-2-yl)phenyl)propanoate] | 0.225 | 0.0584 ± 0.0098
23 | OC[C@H]1O[C@H](c2cccc(-c3ccccc3)c2)[C@@H](O)[C@@H](O)[C@@H]1O [Compound 43, (2R,3S,4R,5S,6R)-2-(hydroxymethyl)-6-(3-phenylphenyl)tetrahydropyran-3,4,5-triol] | 0.064 | 0.0124 ± 0.0013
24 | OC[C@H]1O[C@H](c2ccccc2O)[C@@H](O)[C@@H](O)[C@@H]1O [Compound 45, (2R,3S,4R,5S,6R)-2-(hydroxymethyl)-6-(2-hydroxyphenyl)tetrahydropyran-3,4,5-triol] | 0.183 | 0.0769 ± 0.0491
25 | OC[C@H]1O[C@H](c2ccc(O)cc2)[C@@H](O)[C@@H](O)[C@@H]1O [Compound 46, (2R,3S,4R,5S,6R)-2-(hydroxymethyl)-6-(4-hydroxyphenyl)tetrahydropyran-3,4,5-triol] | 0.148 | 0.0282 ± 0.0133
